Data reported in PMC4503722, “Novel Phenotypic Outcomes Identified for a Public Collection of Approved Drugs from a Publicly Accessible Panel of Assays” (PLoS ONE, 2015).

Experiments:
SW480 = assay: cells; assay type: cell-based; settings: basal; for Basal_Viability ATP SW480 IC50/EC50: assay number 24
DLD-1 = assay: cells; assay type: cell-based; settings: basal; for Basal_Viability ATP DLD-1 IC50/EC50: assay number 23
[1] = system: alkaline phosphatase (ALP) activity in C2C12 cells; assay type: cell-based; settings: concentration response; for WntCondMedia_Alk Phos C2C12 IC50/EC50: assay number 6
HCT116 = assay: cells; assay type: cell-based; settings: basal
RKO = assay: cells; assay type: cell-based; settings: basal; for Basal_Viability ATP RKO IC50/EC50: assay number 29
HT-29 = assay: cells; assay type: cell-based; settings: basal; for Basal_Viability ATP HT-29 IC50/EC50: assay number 28
Colo320 = assay: cells; assay type: cell-based; settings: basal; for Basal_Viability ATP Colo 320 IC50/EC50: assay number 27
[2] = system: HCT116 cells treated with a GSK3β inhibitor; assay: cells; assay type: cell-based; settings: for GSK3b inh pretreated_Viability ATP HCT116 IC50/EC50: assay number 26, GSK3b inhibitor pretreated
HeLa cells = assay: cells; assay type: cell-based; settings: for Hela CellCycMod PI 2N IC50/EC50: assay number 14; for Hela CellCycMod PI 4N IC50/EC50: assay number 16; for Hela CellCycMod PI MI IC50/EC50: assay number 17; for Hela CellCycMod PI Cell Number IC50/EC50: assay number 18; for Hela CellCycMod PI S Phase IC50/EC50: assay number 15
[3] = system: nuclear β-catenin in C2C12 cells; assay: cells; assay type: cell-based; settings: concentration response; for WntCondMedia_bCatenin C2C12 IC50/EC50: assay number 5
SNU-C1 = assay: cells; assay type: cell-based; settings: basal; for Basal_Viability ATP SNU-C1 IC50/EC50: assay number 30
[4] = system: ECFC/ADSC co-culture cell nuclei number
[5] = system: endothelial tube formation in co-cultures of ECFCs and ADSCs treated with VEGF; assay: cells; assay type: cell-based, human

| SMILES | WntCondMedia_Alk Phos C2C12 IC50/EC50 [1] [nM] | VEGF_ADSC\ECFC Angio Hoechst NucArea IC50/EC50 [4] [nM] | VEGF_ADSC\ECFC Angio CD31 TubeArea IC50/EC50 [5] [nM] | Hela CellCycMod PI 2N IC50/EC50 (HeLa cells; 2N) [nM] | Hela CellCycMod PI 4N IC50/EC50 (HeLa cells; 4N) [nM] | Hela CellCycMod PI MI IC50/EC50 (HeLa cells; MI) [nM] | Hela CellCycMod PI Cell Number IC50/EC50 (HeLa cells) [nM] | WntCondMedia_bCatenin C2C12 IC50/EC50 [3] [nM] | Hela CellCycMod PI S Phase IC50/EC50 (HeLa cells) [nM] | Basal_Viability ATP SW480 IC50/EC50 (SW480) [nM] | Basal_Viability ATP DLD-1 IC50/EC50 (DLD-1) [nM] | Basal_Viability ATP RKO IC50/EC50 (RKO) [nM] | Basal_Viability ATP Colo 320 IC50/EC50 (Colo320) [nM] | GSK3b inh pretreated_Viability ATP HCT116 IC50/EC50 [2] [nM] | Basal_Viability ATP HT-29 IC50/EC50 (HT-29) [nM] | Basal_Viability ATP SNU-C1 IC50/EC50 (SNU-C1) [nM] | also measured |
| --- | --- | --- | --- | --- | --- | --- | --- | --- | --- | --- | --- | --- | --- | --- | --- | --- | --- |
| NC(N)=NN=C(/C=C/c1ccc([N+](=O)[O-])o1)/C=C/c1ccc([N+](=O)[O-])o1 [NCGC00181330-02] |  |  |  |  |  |  |  |  |  |  |  |  |  |  |  |  | IC50/EC50, Basal_Viability ATP SW480 (assay number 24) (SW480): 7.6 nM; IC50/EC50, Basal_Viability ATP DLD-1 (assay number 23) (DLD-1): > 20000 nM; IC50/EC50, WntCondMedia_Alk Phos C2C12 (assay number 6) [1]: 372 nM; IC50/EC50, Basal_Viability ATP HCT116 (assay number 25) (HCT116): 135.7 nM; IC50/EC50, Basal_Viability ATP RKO (assay number 29) (RKO): 12.8 nM; IC50/EC50, Basal_Viability ATP HT-29 (assay number 28) (HT-29): 3 nM; IC50/EC50, Basal_Viability ATP Colo 320 (assay number 27) (Colo320): 3 nM; IC50/EC50, GSK3b inh pretreated_Viability ATP HCT116 (assay number 26) ([2]; GSK3b inh pretreated): 23.7 nM; IC50/EC50, Hela CellCycMod PI 2N (assay number 14) (HeLa cells; 2N): > 10000 nM; IC50/EC50, Hela CellCycMod PI 4N (assay number 16) (HeLa cells; 4N): > 10000 nM; IC50/EC50, Hela CellCycMod PI Cell Number (assay number 18) (HeLa cells; Cell Number): > 10000 nM; IC50/EC50, Hela CellCycMod PI MI (assay number 17) (HeLa cells; MI): > 10000 nM; IC50/EC50, Hela CellCycMod PI S Phase (assay number 15) (HeLa cells; S Phase): > 10000 nM; IC50/EC50, WntCondMedia_bCatenin C2C12 (assay number 5) [3]: > 20000 nM; IC50/EC50, Basal_Viability ATP SNU-C1 (assay number 30) (SNU-C1): 1353.9 nM |
| CN1CC[C@H](c2c(O)cc(O)c3c(=O)cc(-c4ccccc4Cl)oc23)[C@H](O)C1.Cl [NCGC00250401-02] | 461.1 | 328.4 | 113.8 | > 10000 | > 10000 | 80.7 | 21.2 | 190.5 |  |  |  |  |  |  |  |  |  |
| CCCCCCCCCCCCNCCNCCNCC(=O)O [NCGC00274269-01] | > 20000 | > 10000 | 6040.4 | > 10000 | > 10000 | > 10000 | > 10000 | > 20000 | > 10000 |  |  |  |  |  |  |  |  |
| COc1cccc2c1C(=O)c1c(O)c3c(c(O)c1C2=O)C[C@@](O)(C(=O)CO)CC3OC1CC(N2CCOC(OC)C2)C(O)C(C)O1 (stereo partly drawn) [NCGC00319019-01] | > 20000 | 44.22 | 3 |  | > 10000 | 11.76 | 4.68 | 13.5 |  | 1 | 1 | 1 | 1 | 1 |  |  |  |
| COc1cccc2c1C(=O)c1c(O)c3c(c(O)c1C2=O)C[C@@](O)(C(=O)CO)C[C@@H]3O[C@H]1C[C@H](N)[C@H](O[C@@H]2CCCCO2)[C@H](C)O1 [NCGC00344543-01] | 3948.8 | 994.9 | 6.3 | 79.5 | 80.63 | > 10000 | 51.43 | > 20000 | 1746 | 7822 | 8952 | 1010 | 2013 | 1275 | > 20000 | 9261.7 | Basal_Viability ATP HCT116 IC50/EC50 (HCT116; assay number 25): 910.7 nM |
| CC[C@]1(O)C[C@@H]2CN(CCc3c([nH]c4ccccc34)[C@@](C(=O)OC)(c3cc4c(cc3OC)N(C)[C@H]3[C@@](O)(C(=O)OC)[C@H](OC(C)=O)[C@]5(CC)C=CCN6CC[C@]43[C@@H]65)C2)C1.O=S(=O)(O)O [NCGC00344583-01] | > 20000 | > 10000 | 2.6 | 4.8 | 4.83 | 4.52 | 5.21 | 3.5 | > 10000 |  |  | 1 | 1 | 1 | 1 | 1 |  |
